# From article PMC10799935, “Discovery of a peripheral 5HT2A antagonist as a clinical candidate for metabolic dysfunction-associated steatohepatitis” (Nature Communications, 2024)
# Several values for one entry are separate records, joined by “and”; a condition that tells them apart may be missing. Equal values may be shown once.
# Columns and labels:
# 5HT1B (h) = molecular target: T1, 5HT1B (h) (Homo sapiens, UniProt P28222); assay: 5HT subtype antagonism assay (Eurofins Cerep): 5HT1B; format: cell-based; conditions: concentration not given
# T1 construct: host or cells: Hela cells
# T1 sequence (P28222 whole entry): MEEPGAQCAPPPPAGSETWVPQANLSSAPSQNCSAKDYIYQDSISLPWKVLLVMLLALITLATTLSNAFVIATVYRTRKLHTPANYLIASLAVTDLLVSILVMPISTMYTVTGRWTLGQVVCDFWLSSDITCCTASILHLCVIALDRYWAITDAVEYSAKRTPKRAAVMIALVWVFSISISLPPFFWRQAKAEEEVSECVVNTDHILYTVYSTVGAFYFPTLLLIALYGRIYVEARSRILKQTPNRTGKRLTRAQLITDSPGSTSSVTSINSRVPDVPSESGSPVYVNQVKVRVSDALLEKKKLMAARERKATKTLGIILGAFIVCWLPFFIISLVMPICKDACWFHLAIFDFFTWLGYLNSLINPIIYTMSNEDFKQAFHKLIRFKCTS
# Description: The derivatives were evaluated at a concentration of 1 μM for their antagonist activity on the 5HT2A receptor (Tables 1–3)[33],[34]. Human 5HT2A stably transfected HEK293 cells (a type of cell derived from kidney embryos)[20] were seeded in a 96-well plate (Costar; 3603) at a density of 9 × 10^4 in 100 μL of minimum essential medium (Welgene; LM007-86) containing 10% dialyzed fetal bovine serum (Gibco; 30067–334) and 1% penicillin/streptomycin (Gibco; 15140-122) and kept in a 37 °C incubator for 24 h. The cells were stained with 100 μL of cytosolic calcium dye using the FLIPR calcium 6 assay solution (Molecular devices, #R8190) supplemented with 2.5 mM probenecid (Sigma; P8761) and incubated for 1 h at 37 °C. After 1 h, the designated amount of the compound was treated in each well and incubated for another 1 h at 37 °C. Then, the cells were loaded in a Flexstation 3 microplate reader (Molecular Devices; FlexStaion) and 50 μL of 5 μM 5HT (serotonin hydrochloride, Sigma; H9523) was injected from a source plate (Nunc 96-well polystyrene conical bottom MicroWell Plate, Thermo; 249662) and the fluorescence intensity (Ex/Em-485nm/ 525 nm) was measured. […]
# Antagonism assay Source Stimulus Incubation Measured Detection Method […]
# HFD-fed C57BL/6J mice = assay: DIO mice: tissue weight; format: in vivo, mouse; conditions: for Tissue Weight Kidney / Tissue Weight Liver / Tissue Weight Pancreas / Tissue Weight eWAT / Tissue Weight iWAT: PO; for Predicted (LS) mean diff. (Vehicle vs. 11c), Tissue Weight: Dunnett's multiple comparisons test; for Significant? (Vehicle vs. 11c), Tissue Weight: Dunnett's test, alpha 0.05; for Predicted (LS) mean 2 (11c group), Tissue Weight: test details, in g (unit assumed)
# From the text: For in vivo efficacy in DIO models and CDAHFD models, the experimental protocol for this study was approved by the Institutional Animal Care and Use Committee (IACUC) at the Korea Advanced Institute of Science and Technology (No. KA2023-027-v2) or Kyungpook National University (No. KNU-20200134). All relevant ethical guidelines were followed. C57BL/6 J male mice (11 weeks old) were purchased from the Charles River Japan and were housed in a specific pathogen-free barrier facility under a regular light-dark cycle (12-hour light/12-hour dark) at 24°C with 40–60% humidity. Food (standard chow diet, Envigo, 2018S) and water were provided ad libitum. […] Mice were euthanized by the method of cervical dislocation. The measurement of lean and fat mass in live mice was performed by a body composition analyzer (LF50 BCA-analyzer, Bruker). After 6 h of fasting, mice were sacrificed, and tissue samples were obtained.
# [1] = Phase 1 clinical trial, SAD (single ascending dose) study; conditions: human, in vivo
# CYP2C19 = CYP2C19 (Homo sapiens, UniProt P33261); assay: in vitro
# CYP2C19, sequence (P33261 whole entry): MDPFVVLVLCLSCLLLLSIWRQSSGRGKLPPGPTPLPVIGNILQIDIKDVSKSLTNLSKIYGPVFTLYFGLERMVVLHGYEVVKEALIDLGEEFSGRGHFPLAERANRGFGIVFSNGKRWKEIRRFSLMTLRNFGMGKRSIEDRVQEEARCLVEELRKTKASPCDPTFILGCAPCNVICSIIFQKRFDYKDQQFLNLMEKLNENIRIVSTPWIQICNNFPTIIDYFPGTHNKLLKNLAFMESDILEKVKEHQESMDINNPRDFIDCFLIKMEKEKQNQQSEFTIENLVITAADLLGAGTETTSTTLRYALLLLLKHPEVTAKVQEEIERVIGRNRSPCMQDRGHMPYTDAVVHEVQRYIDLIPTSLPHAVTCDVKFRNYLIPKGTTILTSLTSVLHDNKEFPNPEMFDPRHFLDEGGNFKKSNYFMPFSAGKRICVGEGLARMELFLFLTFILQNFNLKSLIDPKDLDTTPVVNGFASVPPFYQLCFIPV
# in vitro = conditions: African green monkey
# 5HT2A = 5HT2A (Homo sapiens, UniProt P28223); assay: Human 5HT2A inhibition assay (FLIPR calcium 6, 5HT stimulus, stably transfected HEK293 cells); format: cell-based; design: expressed in transfected cells; host or cells: HEK293; conditions: HEK293, 1 μM; read-out: % Inhibition at 1 μM (SD)
# 5HT2A, sequence (P28223 whole entry): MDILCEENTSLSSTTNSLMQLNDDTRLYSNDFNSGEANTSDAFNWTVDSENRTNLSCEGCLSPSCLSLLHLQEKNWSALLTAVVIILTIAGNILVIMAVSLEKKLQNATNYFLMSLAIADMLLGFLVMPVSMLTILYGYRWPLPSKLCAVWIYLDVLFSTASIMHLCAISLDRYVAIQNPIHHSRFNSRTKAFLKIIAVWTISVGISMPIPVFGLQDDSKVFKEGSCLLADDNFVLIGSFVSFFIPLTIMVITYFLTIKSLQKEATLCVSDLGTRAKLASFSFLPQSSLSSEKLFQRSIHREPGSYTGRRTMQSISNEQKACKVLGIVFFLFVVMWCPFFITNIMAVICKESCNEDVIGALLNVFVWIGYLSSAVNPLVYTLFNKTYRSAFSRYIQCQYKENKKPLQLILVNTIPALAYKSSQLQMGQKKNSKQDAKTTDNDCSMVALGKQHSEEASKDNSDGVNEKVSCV
# Description: The derivatives were evaluated at a concentration of 1 μM for their antagonist activity on the 5HT2A receptor (Tables 1–3)[33],[34]. […] The cells were stained with 100 μL of cytosolic calcium dye using the FLIPR calcium 6 assay solution (Molecular devices, #R8190) supplemented with 2.5 mM probenecid (Sigma; P8761) and incubated for 1 h at 37 °C. After 1 h, the designated amount of the compound was treated in each well and incubated for another 1 h at 37 °C. […] Experimental conditions for the 5HT subtypes can be found in the Supporting Information (Supplementary Table 1).
# [2] = DIO mice, 5mpk, individual animals, 5 mg/kg
# [3] = DIO mice, 10mpk, individual animals, 10 mg/kg
smiles,measurement,setting,value
Cc1nc2n(c(=O)c1CCN1CCC(=C3c4ccc(Cl)cc4CCc4cccnc43)CC1)CCCC2O (stereo not drawn) [Compound 11c],Selectivity 1B: % inhibition,5HT1B (h),16%
same,Tissue Weight Kidney,"HFD-fed C57BL/6J mice; DIO mice, 5mpk, group mean",0.17 g
same,Tissue Weight Liver,"HFD-fed C57BL/6J mice; DIO mice, 5mpk, group mean",1.34 g
same,Tissue Weight Pancreas,"HFD-fed C57BL/6J mice; DIO mice, 5mpk, group mean",0.39 g
same,Tissue Weight eWAT,"HFD-fed C57BL/6J mice; DIO mice, 5mpk, group mean",1.01 g
same,Tissue Weight iWAT,"HFD-fed C57BL/6J mice; DIO mice, 5mpk, group mean",1.37 g
same,Tissue Weight Kidney,HFD-fed C57BL/6J mice; [2],0.166 g and 0.156 g and 0.168 g and 0.162 g and 0.198 g and 0.195 g and 0.164 g
same,Tissue Weight Liver,HFD-fed C57BL/6J mice; [2],1.353 g and 1.128 g and 1.239 g and 1.293 g and 1.762 g and 1.451 g
same,Tissue Weight Pancreas,HFD-fed C57BL/6J mice; [2],0.398 g and 0.353 g and 0.255 g and 0.338 g and 0.634 g and 0.394 g and 0.387 g
same,Tissue Weight eWAT,HFD-fed C57BL/6J mice; [2],1.284 g and 1.045 g and 0.952 g and 0.74 g and 0.897 g and 0.939 g and 1.199 g
same,Tissue Weight iWAT,HFD-fed C57BL/6J mice; [2],1.826 g and 1.295 g and 1.198 g and 1.045 g and 1.186 g and 1.418 g and 1.644 g
same,Tissue Weight Kidney,"HFD-fed C57BL/6J mice; DIO mice, 10mpk, group mean",0.18 g
same,Tissue Weight Liver,"HFD-fed C57BL/6J mice; DIO mice, 10mpk, group mean",1.25 g
same,Tissue Weight Pancreas,"HFD-fed C57BL/6J mice; DIO mice, 10mpk, group mean",0.36 g
same,Tissue Weight eWAT,"HFD-fed C57BL/6J mice; DIO mice, 10mpk, group mean",0.57 g
same,Tissue Weight iWAT,"HFD-fed C57BL/6J mice; DIO mice, 10mpk, group mean",1.15 g
same,Tissue Weight Kidney,HFD-fed C57BL/6J mice; [3],0.183 g and 0.162 g and 0.142 g and 0.267 g and 0.16 g
same,Tissue Weight Liver,HFD-fed C57BL/6J mice; [3],1.17 g and 1.368 g and 1.031 g and 1.332 g and 1.38 g and 1.246 g
same,Tissue Weight Pancreas,HFD-fed C57BL/6J mice; [3],0.302 g and 0.381 g and 0.318 g and 0.442 g and 0.387 g and 0.34 g
same,Tissue Weight eWAT,HFD-fed C57BL/6J mice; [3],0.449 g and 0.747 g and 0.512 g and 0.764 g and 0.418 g
same,Tissue Weight iWAT,HFD-fed C57BL/6J mice; [3],0.774 g and 1.585 g and 1.202 g and 1.593 g and 1.007 g and 0.712 g
same,Tissue weight of inguinal white adipose tissue (iWAT),"HFD-fed C57BL/6J mice; DIO mice, vs vehicle",significantly decreased
same,Tissue weight of liver,"HFD-fed C57BL/6J mice; DIO mice, vs vehicle",significantly decreased
same,"Predicted (LS) mean diff. (Vehicle vs. 11c), Tissue Weight","HFD-fed C57BL/6J mice; Kidney, 5mpk",0.01612
same,"Significant? (Vehicle vs. 11c), Tissue Weight","HFD-fed C57BL/6J mice; Kidney, 5mpk",No
same,"Predicted (LS) mean 2 (11c group), Tissue Weight","HFD-fed C57BL/6J mice; Kidney, 5mpk",0.1727
same,"Predicted (LS) mean diff. (Vehicle vs. 11c), Tissue Weight","HFD-fed C57BL/6J mice; Kidney, 10mpk",0.006
same,"Significant? (Vehicle vs. 11c), Tissue Weight","HFD-fed C57BL/6J mice; Kidney, 10mpk",No
same,"Predicted (LS) mean 2 (11c group), Tissue Weight","HFD-fed C57BL/6J mice; Kidney, 10mpk",0.1828
same,"Predicted (LS) mean diff. (Vehicle vs. 11c), Tissue Weight","HFD-fed C57BL/6J mice; Liver, 5mpk",0.2072
same,"Significant? (Vehicle vs. 11c), Tissue Weight","HFD-fed C57BL/6J mice; Liver, 5mpk",No
same,"Predicted (LS) mean 2 (11c group), Tissue Weight","HFD-fed C57BL/6J mice; Liver, 5mpk",1.336
same,"Predicted (LS) mean diff. (Vehicle vs. 11c), Tissue Weight","HFD-fed C57BL/6J mice; Liver, 10mpk",0.289
same,"Significant? (Vehicle vs. 11c), Tissue Weight","HFD-fed C57BL/6J mice; Liver, 10mpk",Yes
same,"Predicted (LS) mean 2 (11c group), Tissue Weight","HFD-fed C57BL/6J mice; Liver, 10mpk",1.255
same,"Predicted (LS) mean diff. (Vehicle vs. 11c), Tissue Weight","HFD-fed C57BL/6J mice; Pancreas, 5mpk",0.1064
same,"Significant? (Vehicle vs. 11c), Tissue Weight","HFD-fed C57BL/6J mice; Pancreas, 5mpk",No
same,"Predicted (LS) mean 2 (11c group), Tissue Weight","HFD-fed C57BL/6J mice; Pancreas, 5mpk",0.3941
same,"Predicted (LS) mean diff. (Vehicle vs. 11c), Tissue Weight","HFD-fed C57BL/6J mice; Pancreas, 10mpk",0.1388
same,"Significant? (Vehicle vs. 11c), Tissue Weight","HFD-fed C57BL/6J mice; Pancreas, 10mpk",No
same,"Predicted (LS) mean 2 (11c group), Tissue Weight","HFD-fed C57BL/6J mice; Pancreas, 10mpk",0.3617
same,"Predicted (LS) mean diff. (Vehicle vs. 11c), Tissue Weight","HFD-fed C57BL/6J mice; eWAT, 5mpk",-0.00381
same,"Significant? (Vehicle vs. 11c), Tissue Weight","HFD-fed C57BL/6J mice; eWAT, 5mpk",No
same,"Predicted (LS) mean 2 (11c group), Tissue Weight","HFD-fed C57BL/6J mice; eWAT, 5mpk",1.373
same,"Predicted (LS) mean diff. (Vehicle vs. 11c), Tissue Weight","HFD-fed C57BL/6J mice; eWAT, 10mpk",0.2238
same,"Significant? (Vehicle vs. 11c), Tissue Weight","HFD-fed C57BL/6J mice; eWAT, 10mpk",No
same,"Predicted (LS) mean 2 (11c group), Tissue Weight","HFD-fed C57BL/6J mice; eWAT, 10mpk",1.146
same,"Predicted (LS) mean diff. (Vehicle vs. 11c), Tissue Weight","HFD-fed C57BL/6J mice; iWAT, 5mpk",0.08033
same,"Significant? (Vehicle vs. 11c), Tissue Weight","HFD-fed C57BL/6J mice; iWAT, 5mpk",No
same,"Predicted (LS) mean 2 (11c group), Tissue Weight","HFD-fed C57BL/6J mice; iWAT, 5mpk",1.008
same,"Predicted (LS) mean diff. (Vehicle vs. 11c), Tissue Weight","HFD-fed C57BL/6J mice; iWAT, 10mpk",0.5213
same,"Significant? (Vehicle vs. 11c), Tissue Weight","HFD-fed C57BL/6J mice; iWAT, 10mpk",Yes
same,"Predicted (LS) mean 2 (11c group), Tissue Weight","HFD-fed C57BL/6J mice; iWAT, 10mpk",0.567
same,half-life,[1],> 10 h
same,inhibition at 10 µM,CYP2C19,6.83%
same,IC50,in vitro,> 100 µM
same,inhibition at 1 µM,5HT2A,92.56 ± 0.77%
